# Measurements taken from ChEMBL document CHEMBL3046031, “Comparison of Acaricidal, Insecticidal, and Nerve Activities of Halfenprox (MTI-732) and Related Compounds” (1996).
# Activity calls are given as the source filed them. The calls are words filed in the database; no cut-off is given here.
# Tested on: Nerve cord
# Assay: Induction of repetitive firing in excised nerve cord of Periplaneta americana (American cockroach) measured up to 32 min
# Format: functional
row,SMILES,log(1/MEC)
1,CC(C)(COCc1cccc(Oc2ccccc2)c1)c1ccc(OC(F)(F)F)cc1,7.45
2,CC(C)(COCc1cccc(Oc2ccccc2)c1)c1ccc(OC(F)(F)Cl)cc1,6.14
3,CC(C)(COCc1cccc(Oc2ccccc2)c1)c1ccc(OC(F)F)cc1,7.73
4,CCOc1ccc(C(C)(C)COCc2cccc(Oc3ccccc3)c2)cc1 [ETOFENPROX],8
5,CC(C)(COCc1cccc(Oc2ccccc2)c1)c1ccc(OC(F)(F)Br)cc1 [halfenprox],6.57

# Tested on: Periplaneta americana
# Assay: Insecticidal activity against Periplaneta americana (American cockroach) assessed as paralysis/mortality compound injected into abdomen after 24 hr
# Format: functional
row,SMILES,log(1/MLD)
1,CC(C)(COCc1cccc(Oc2ccccc2)c1)c1ccc(OC(F)(F)F)cc1,9.64
2,CC(C)(COCc1cccc(Oc2ccccc2)c1)c1ccc(OC(F)(F)Cl)cc1,9.55
3,CC(C)(COCc1cccc(Oc2ccccc2)c1)c1ccc(OC(F)F)cc1,9.03
4,CCOc1ccc(C(C)(C)COCc2cccc(Oc3ccccc3)c2)cc1 [ETOFENPROX],9.49
5,CC(C)(COCc1cccc(Oc2ccccc2)c1)c1ccc(OC(F)(F)Br)cc1 [halfenprox],9.67

# Tested on: Tetranychus urticae
# Assay: Acaricidal activity against Tetranychus urticae (two-spotted spider mite) infested kidney bean leaf disk assessed as mortality measured after 48 hr
# Format: functional
row,SMILES,log(1/LC50)
1,CC(C)(COCc1cccc(Oc2ccccc2)c1)c1ccc(OC(F)(F)F)cc1,5.14
2,CC(C)(COCc1cccc(Oc2ccccc2)c1)c1ccc(OC(F)(F)Cl)cc1,5.34
3,CC(C)(COCc1cccc(Oc2ccccc2)c1)c1ccc(OC(F)F)cc1,3.75
4,CCOc1ccc(C(C)(C)COCc2cccc(Oc3ccccc3)c2)cc1 [ETOFENPROX],3.48
5,CC(C)(COCc1cccc(Oc2ccccc2)c1)c1ccc(OC(F)(F)Br)cc1 [halfenprox],5.77

# Tested on: Spodoptera litura
# Assay: Insecticidal activity against third-instar larvae of Spodoptera litura infested compound-treated cabbage leaf assessed as mortality after 48 hr in presence of piperonyl butoxide
# Format: functional
row,SMILES,log(1/MLD)
1,CC(C)(COCc1cccc(Oc2ccccc2)c1)c1ccc(OC(F)(F)F)cc1,9.75
2,CC(C)(COCc1cccc(Oc2ccccc2)c1)c1ccc(OC(F)(F)Cl)cc1,9.75
3,CC(C)(COCc1cccc(Oc2ccccc2)c1)c1ccc(OC(F)F)cc1,9.52
4,CCOc1ccc(C(C)(C)COCc2cccc(Oc3ccccc3)c2)cc1 [ETOFENPROX],9.79
5,CC(C)(COCc1cccc(Oc2ccccc2)c1)c1ccc(OC(F)(F)Br)cc1 [halfenprox],9.77

# Tested on: Tetranychus urticae
# Assay: Ratio of etofenprox LC50 to compound LC50 for Tetranychus urticae (two-spotted spider mite) infested kidney bean leaf disk
# Format: functional
row,SMILES,RatioLC50
1,CC(C)(COCc1cccc(Oc2ccccc2)c1)c1ccc(OC(F)(F)Br)cc1 [halfenprox],200

# Tested on: Spodoptera litura
# Assay: Insecticidal activity against third-instar larvae of Spodoptera litura infested compound-treated cabbage leaf assessed as mortality after 48 hr
# Format: functional
row,SMILES,log(1/LC50)
1,CC(C)(COCc1cccc(Oc2ccccc2)c1)c1ccc(OC(F)(F)F)cc1,5.36
2,CC(C)(COCc1cccc(Oc2ccccc2)c1)c1ccc(OC(F)(F)Cl)cc1,4.96
3,CC(C)(COCc1cccc(Oc2ccccc2)c1)c1ccc(OC(F)F)cc1,4.7
4,CCOc1ccc(C(C)(C)COCc2cccc(Oc3ccccc3)c2)cc1 [ETOFENPROX],4.68
5,CC(C)(COCc1cccc(Oc2ccccc2)c1)c1ccc(OC(F)(F)Br)cc1 [halfenprox],4.83

# Tested on: Procambarus clarkii
# Assay: Induction of depolarization in Procambarus clarkii (crayfish) giant axons assessed as transient inward sodium currents at -100 to -20 mV holding potential at 2 x 10 '-5 M
# Format: functional
row,SMILES,Activity
1,CC(C)(COCc1cccc(Oc2ccccc2)c1)c1ccc(OC(F)(F)F)cc1,Active
2,CC(C)(COCc1cccc(Oc2ccccc2)c1)c1ccc(OC(F)(F)Cl)cc1,Active
3,CC(C)(COCc1cccc(Oc2ccccc2)c1)c1ccc(OC(F)F)cc1,Active
4,CCOc1ccc(C(C)(C)COCc2cccc(Oc3ccccc3)c2)cc1 [ETOFENPROX],Active
5,CC(C)(COCc1cccc(Oc2ccccc2)c1)c1ccc(OC(F)(F)Br)cc1 [halfenprox],Active
